From patent US10519162B2, “6,7-dihydropyrazolo[1,5-α]pyrazin-4(5H)-one compounds and their use as negative allosteric modulators of mGluR2 receptors” (Janssen Pharmaceutica NV, priority 2014, dated 2019) come the findings set out here.

One data set addresses T1, human mGlu2 receptor (Homo sapiens, UniProt Q14416).
T1 construct: expressed in transfected cells; host or cells: CHO cells
In words: [35S]GTPγS binding assay (mGluR2 negative allosteric modulation, glutamate ~EC80 60 μM). It counts as biochemical. Particulars: for Emax: maximal % inhibition relative to the control glutamate response (EC80 glutamate), read-out: GTPγS-hmGluR2 anGT Emax; for IC50: membranes from CHO cells transfected with human mGlu2 receptor, glutamate ~EC80 (60 μM), pIC50 = −log IC50 (M), read-out: GTPγS-hmGluR2 anGT pIC50 (converted). Here is the method:
1) [^35S]GTPγS Binding Assay
[^35S]GTPγS Binding Assay
Total reaction volume was 200 μl. […] Membrane-bound radioactivity was counted in a Topcount.
(GTPγS resists hydrolysis and so accumulates on activated G proteins.)

Another data set has as its system rats. Description: Reversal of the effect of the mGluR2 PAM JNJ-42153605-induced inhibition of scopolamine-induced hyperlocomotion (SCOP JNJ-42153605). In kind it is in vivo, rat. Particulars: Rattus norvegicus; PO (oral route); rats; reversal criterion total distance >1500 cm. Here is the method: 2) Reversal of the Effect of the mGluR2 PAM JNJ-42153605-Induced Inhibition of Scopolamine-Induced Hyperlocomotion Apparatus
Motor activity was measured in microprocessor-based motor activity arenas (closed gray PVC cylinders with a height of 39 cm and a diameter of 31 cm). Each arena was placed on an infrared LED (8×8 LEDs) lit box (white PVC squared box; 40×40 cm^2; height 12.5 cm. An infrared-sensitive tube camera and a white light source were mounted to the ceiling above the observation chamber to track the animal. The total distance traveled (cm) was recorded and analyzed using the Noldus Ethovision XT Video Tracking System (Version 7.0.418; Noldus, Wageningen, The Netherlands). The intensity of the light within the activity cages (measured in the centre at the level of the floor) ranged between 4 and 8 LUX.
The rats were pretreated with test compound or vehicle at 60 min before the start of the activity recordings and placed into individual cages. The rats were challenged with JNJ-42153605 (3-(cyclopropylmethyl)-7-(4-phenylpiperidin-1-yl)-8-(trifluoromethyl)[1,2,4]triazolo[4,3-a]pyridine; WO2010/130424; Cid et al. J. Med. Chem. 2012, 55, 8770-8789) (20 mg/kg, i.v.) 30 min before the start of the activity recording combined with scopolamine (0.16 mg/kg, i.v.) just before the start of the activity measurements. Immediately after the injection of scopolamine, the rats were placed into the activity monitors and total distance travelled over the first 30 min was measured.
Solvent-Pretreated Control Rats.
Animals receiving the combination of JNJ-42153605 and scopolamine (n=433) almost always travelled a distance of less than 1500 cm (<1500 cm) (only 2.5% of the control rats travelled a distance of more than 1500 cm (>1500 cm)). On the other hand, animals challenged with scopolamine alone (n=215) always travelled a total distance of more than 1500 cm (>1500 cm) and almost always (in 95.8% of the rats) a distance of more than 4400 cm (>4400 cm). […] For reversal of the inhibitory effect of JNJ-42153605 on the scopolamine-induced hyperlocomotion, the following all-or-none criteria were adopted: (1) reversal: total distance >1500 cm.

The next data set has as its system Wiga rats. In words: Induction of mydriasis (MYD). Particulars: Rattus norvegicus, PO (oral route), pupil diameter >25 units, 1-3 h post-administration. In kind it is in vivo. Here is the method: 3) Induction of Mydriasis
The pupil diameter of Wiga rats was measured with a microscopic micrometer (1 unit=1/24 mm). Criteria for drug-induced effects: pupil diameter >25 units for mydriasis (in controls: 1.9%) 1, 2 or 3 h post-administration of the test compound (wherein the maximum pupil diameter over the full 3 h period is reported).

T1 sequence (Q14416 19-872): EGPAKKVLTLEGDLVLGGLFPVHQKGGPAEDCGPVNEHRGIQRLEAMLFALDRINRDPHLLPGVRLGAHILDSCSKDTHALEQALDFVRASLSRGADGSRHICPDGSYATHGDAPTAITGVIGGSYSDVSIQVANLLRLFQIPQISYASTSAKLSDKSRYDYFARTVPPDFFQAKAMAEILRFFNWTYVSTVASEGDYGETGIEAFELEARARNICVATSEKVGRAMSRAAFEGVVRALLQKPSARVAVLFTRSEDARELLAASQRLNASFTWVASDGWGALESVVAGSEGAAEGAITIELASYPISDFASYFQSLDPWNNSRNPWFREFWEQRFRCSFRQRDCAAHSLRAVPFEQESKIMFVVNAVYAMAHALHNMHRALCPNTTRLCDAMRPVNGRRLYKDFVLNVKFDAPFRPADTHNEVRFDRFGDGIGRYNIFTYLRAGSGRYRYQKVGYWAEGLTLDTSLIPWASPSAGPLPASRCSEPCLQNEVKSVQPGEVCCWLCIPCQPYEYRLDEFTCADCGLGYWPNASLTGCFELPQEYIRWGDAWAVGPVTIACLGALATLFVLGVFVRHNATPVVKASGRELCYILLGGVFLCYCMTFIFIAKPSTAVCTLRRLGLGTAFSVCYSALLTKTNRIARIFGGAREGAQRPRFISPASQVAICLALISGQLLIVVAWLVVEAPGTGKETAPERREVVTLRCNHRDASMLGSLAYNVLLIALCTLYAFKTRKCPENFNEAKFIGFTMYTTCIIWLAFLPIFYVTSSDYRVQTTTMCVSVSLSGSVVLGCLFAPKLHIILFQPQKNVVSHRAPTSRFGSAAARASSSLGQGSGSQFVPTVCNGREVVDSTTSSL

For `C[C@H]1CN(c2ccc(OC(F)(F)F)cc2)C(=O)c2c(NC(=O)c3cccnc3)cnn21` [Co. No. 178], the melting point (commonly the temperature of the solid-liquid transition) worked out at 125.45 °C. Besides, on human mGlu2 receptor, the Emax – broadly, the size of the effect at its maximum, as opposed to the concentration needed – was 105% and the IC50 was 1.48e-08 M. Besides, the ED50 – broadly, the dose that gives a 50% effect, or the effect in half of the subjects – in the data set on rats came out at 0.318 mg/kg. In the data set with Wiga rats, the ED50 was > 10 mg/kg.
`C[C@H]1CN(c2ccc(OC(F)(F)F)cc2)C(=O)c2c(NC(=O)c3cccnc3N)cnn21` [Co. No. 196] had a melting point of 188.46 °C. At human mGlu2 receptor, the Emax was 109% and the IC50 is 2.63e-09 M. The ED50 in the data set on rats turned out to be 0.32 mg/kg. Moreover, in the data set with Wiga rats, the ED50 was > 10 mg/kg.
`C[C@H]1CN(c2ccc(Cl)c(Cl)c2)C(=O)c2c(NC(=O)c3cccnc3N)cnn21` [Co. No. 185] displayed a melting point of 193.17 °C. Besides, at human mGlu2 receptor, the Emax worked out at 113% and the IC50 is 1.07e-09 M. The ED50 with rats came out at 0.08 mg/kg. In addition, the ED50 in the data set with Wiga rats was > 10 mg/kg.
On to `Cc1cc(C(=O)Nc2cnn3c2C(=O)N(c2ccc(C(F)(F)F)c(C)c2)C[C@@H]3C)cc(C)n1` [Co. No. 113], for which the melting point came to 164.61 °C. At human mGlu2 receptor, the Emax was 107% and the IC50 is 2.04e-09 M. In addition, the 50% effective dose (ED50) in the data set with rats is 0.5 mg/kg. Also, the ED50 in the data set on Wiga rats was > 40 mg/kg.
For `C[C@H]1CN(c2ccc(C(F)(F)F)c(Cl)c2)C(=O)c2c(NC(=O)c3cccnc3N)cnn21` [Co. No. 182], in that order: 142.58 °C, 110%, 7.08e-10 M, 0.0985 mg/kg and > 10 mg/kg.
For the molecule `C[C@H]1CN(c2ccc(Cl)c(Cl)c2)C(=O)c2c(NC(=O)c3cnccn3)cnn21` [Co. No. 104], the melting point was determined as 201.39 °C. For the same molecule, on human mGlu2 receptor, the Emax worked out at 107% and the IC50 was 1.82e-09 M. Besides, the ED50 in the data set with rats was 0.32 mg/kg. It took a dose of 6.6 mg/kg to reach the 50% effect level in the data set with Wiga rats (ED50).
The molecule `C[C@H]1CN(c2ccc(C(F)(F)F)c(Cl)c2)C(=O)c2c(NC(=O)c3cnccn3)cnn21` [Co. No. 176] displayed a melting point of 230.53 °C. On human mGlu2 receptor, the Emax was 108% and the IC50 was 1.7e-09 M. Moreover, the ED50 in the data set on rats amounted to 0.32 mg/kg. The ED50 with Wiga rats was > 10 mg/kg.
In turn, `C[C@H]1CN(c2ccc(C(F)(F)F)cc2)C(=O)c2c(NC(=O)c3cccnc3N)cnn21` [Co. No. 189] had a melting point of 214.96 °C. On human mGlu2 receptor, the Emax amounted to 109% and the IC50 was 1.82e-09 M. In addition, the ED50 with rats was 0.2 mg/kg. The ED50 in the data set with Wiga rats was > 10 mg/kg.
Consider `C[C@H]1CN(c2ccc(C(F)(F)F)c(Cl)c2)C(=O)c2c(NC(=O)c3cccnc3)cnn21` [Co. No. 100], for which the melting point stood at 157.47 °C. Besides, on human mGlu2 receptor, the Emax came out at 106% and the IC50 is 2.19e-09 M. Moreover, the ED50 in the data set on rats turned out to be 0.8 mg/kg. For the same molecule, the ED50 with Wiga rats is > 2.5 mg/kg.
Take `Cc1cc(C(=O)Nc2cnn3c2C(=O)N(c2ccc(C(F)(F)F)cc2)C[C@@H]3C)cnc1N` (racemic) [Co. No. 187]: the melting point worked out at 277.76 °C. In addition, on human mGlu2 receptor, the Emax was found to be 109% and the IC50 was 1.51e-09 M. For the same molecule, the ED50 in the data set on rats came to 0.0794 mg/kg. For the same molecule, in the data set with Wiga rats, the ED50 is > 10 mg/kg.
In the same order, the values of `Cc1cnc(N)c(C(=O)Nc2cnn3c2C(=O)N(c2ccc(C(F)(F)F)cc2)C[C@@H]3C)c1` [Co. No. 191] are 222.34 °C, 112%, 1.95e-09 M, 0.318 mg/kg and > 10 mg/kg.
For `C[C@H]1CN(c2ccc(S(F)(F)(F)(F)F)cc2)C(=O)c2c(NC(=O)c3cccnc3)cnn21` [Co. No. 175], the melting point worked out at 205.19 °C. At human mGlu2 receptor, the Emax was 108% and the IC50 is 3.16e-09 M. In the data set on rats, the ED50 was 0.318 mg/kg. The ED50 in the data set with Wiga rats is > 10 mg/kg.
For `Cc1cc(N2C[C@H](C)n3ncc(NC(=O)c4cccnc4N)c3C2=O)ccc1C(F)(F)F` [Co. No. 184], the melting point stood at 175.63 °C. In addition, at human mGlu2 receptor, the Emax came out at 110% and the IC50 is 1.23e-09 M. In addition, the ED50 in the data set on rats was found to be 0.2 mg/kg. Besides, the ED50 in the data set on Wiga rats is > 10 mg/kg.
Consider `COc1cncc(C(=O)Nc2cnn3c2C(=O)N(c2ccc(C(F)(F)F)cc2)C[C@@H]3C)c1C` [Co. No. 122], for which the melting point was found to be 181.87 °C. On human mGlu2 receptor, the maximal effect (Emax) was determined as 105% and the IC50 was 1.91e-07 M. The ED50 with rats was > 0.63 mg/kg.
As to `COc1cc(N2C[C@H](C)n3ncc(NC(=O)c4ccccn4)c3C2=O)ccc1C(F)(F)F` [Co. No. 111], the melting point is 217.95 °C. Further, at human mGlu2 receptor, the Emax worked out at 105% and the IC50 is 1.02e-08 M. The ED50 in the data set with rats is > 0.63 mg/kg.
`C[C@H]1CN(c2ccc(Cl)c(Cl)c2)C(=O)c2c(NC(=O)c3ccccn3)cnn21` [Co. No. 105] yielded a melting point of 155.04 °C. Besides, at human mGlu2 receptor, the Emax worked out at 109% and the IC50 was 2.63e-09 M. For the same molecule, the ED50 in the data set on rats was > 0.63 mg/kg.
On to `C[C@H]1CN(c2ccc(C(F)(F)F)c(F)c2)C(=O)c2c(NC(=O)c3cncc(F)c3)cnn21` [Co. No. 124], for which the melting point is 217.01 °C. Moreover, on human mGlu2 receptor, the Emax is 109% and the IC50 was 9.55e-09 M. Also, the ED50 in the data set with rats was > 0.63 mg/kg.
In the same order, the values of `C[C@H]1CN(c2ccc(SC(F)(F)F)cc2)C(=O)c2c(NC(=O)c3cccnc3)cnn21` [Co. No. 179] are 110.73 °C, 106%, 5.89e-09 M and > 0.63 mg/kg.
As for `Cc1cc(C(=O)Nc2cnn3c2C(=O)N(c2ccc(C(F)(F)F)c(C)c2)C[C@@H]3C)ccn1` [Co. No. 112], the melting point was 128.97 °C. In addition, on human mGlu2 receptor, the Emax is 106% and the IC50 is 4.68e-09 M. Moreover, in the data set on rats, the ED50 is > 0.63 mg/kg.
For `COc1cc(N2C[C@H](C)n3ncc(NC(=O)c4cncc(F)c4)c3C2=O)ccc1C(F)(F)F` [Co. No. 116], in that order: 162.96 °C, 104%, 1e-08 M and > 0.63 mg/kg.
The molecule `C[C@H]1CN(c2ccc(Cl)cc2)C(=O)c2c(NC(=O)c3cccnc3N)cnn21` [Co. No. 198] showed a melting point of 209.11 °C. Moreover, on human mGlu2 receptor, the Emax was determined as 109% and the IC50 was 4.07e-09 M. In addition, the ED50 in the data set on rats is > 0.63 mg/kg.
`C[C@H]1CN(c2ccc(C(F)(F)F)cc2)C(=O)c2c(NC(=O)c3cnccn3)cnn21` [Co. No. 35]: the melting point was 219.91 °C. Also, on human mGlu2 receptor, the Emax came to 112% and the IC50 was 8.13e-09 M. In the data set on rats, the ED50 came to 1.26 mg/kg.
As to `Cc1cc(C(=O)Nc2cnn3c2C(=O)N(c2ccc(C(F)(F)F)c(Cl)c2)C[C@@H]3C)cc(C)n1` [Co. No. 172], at human mGlu2 receptor, the Emax is 110% and the IC50 was 1.32e-09 M. Besides, the ED50 with rats stood at 0.32 mg/kg. Also, the median effective dose (ED50) in the data set on Wiga rats was > 40 mg/kg.
For `COc1cnc(C(=O)Nc2cnn3c2C(=O)N(c2ccc(C(F)(F)F)cc2)C[C@@H]3C)cn1` [Co. No. 39], the melting point was determined as 191.33 °C. Besides, on human mGlu2 receptor, the Emax was determined as 111% and the IC50 is 9.33e-09 M. Moreover, the ED50 with rats is > 2.5 mg/kg.
`Cc1cc(N2C[C@H](C)n3ncc(NC(=O)c4cncc(F)c4)c3C2=O)ccc1C(F)(F)F` [Co. No. 107]: the melting point was 155.04 °C. In addition, on human mGlu2 receptor, the Emax is 108% and the IC50 was 2.69e-09 M. Besides, in the data set on rats, the ED50 was > 0.63 mg/kg.
On to `COc1ccnc(N)c1C(=O)Nc1cnn2c1C(=O)N(c1ccc(C(F)(F)F)cc1)C[C@@H]2C` (racemic) [Co. No. 193], for which the melting point worked out at 248.21 °C. Besides, on human mGlu2 receptor, the Emax stood at 106% and the IC50 is 2.88e-09 M. In addition, in the data set with rats, the ED50 was > 0.63 mg/kg.
For the molecule `C[C@H]1CN(c2ccc(C(F)(F)F)c(F)c2)C(=O)c2c(NC(=O)c3cnccn3)cnn21` [Co. No. 127], the melting point is 236.55 °C. Moreover, on human mGlu2 receptor, the Emax came out at 104% and the IC50 was 6.61e-09 M. The ED50 with rats is > 0.63 mg/kg.
